Results published in patent US11225465B2, “Albicidin derivatives, their use and synthesis” (TECHNISCHE UNIVERSITÄT BERLIN, priority 2017, dated 2022).
In brackets after ≈: the same amount, converted by molar mass. Where two headings read alike, the source gives them in different places.

Columns and labels:
Assay in all cases: Microdilution assay, MIC
Type in all cases: cell-based
[1] = test system: Micrococcus luteus DSM1790; settings: read-out: MIC M. luteus DSM1790
Experimental: (§1) The tests were performed using the micro dilution method.
(§2) The determination of MIC values was performed according to the ninth edition of the Approved Standard M07-A9 (CLSI. Methods for Dilution Antimicrobial Susceptibility Tests for Bacteria That Grow Aerobically; Approved Standard—Ninth Edition. CLSI document M07-A9. Wayne, Pa.: Clinical and Laboratory Standards Institute; 2012.)
(§3) The test was carried out for four different bacterial strains (E. coli DSM 1116 [gram negative], B. subtilis DSM 10 [gram positive], M. luteus DSM 1790 [gram positive], S. typhimurium TA100 [gram negative]). 20 μL of cryo stock of each strain were inoculated in 20 mL of LB media (Lysogeny broth: 10 g/L peptone, 5 g/L yeast extract, 5 g/L NaCl) followed by incubation over night at 37° C., 200 rpm. The test inoculum was adjusted by the 0.5 McFarland Standard (OD625 from 0.08 to 0.1). Within 15 min of preparation, the adjusted inoculum suspension was diluted in MHBII media (BBL T M Mueller-Hinton Broth II, Becton, Dickinson and Company, N.J./USA) so that each well contained approximately 5×10^5 CFU/mL in a final volume of 100 μL. 95 μL of the inoculum were applied per well and 5 μL of the (diluted) antibiotic substance were added.
(§4) Previously the dry antibiotic compounds were dissolved in DMSO (100%) with a concentration of 2560 μg/mL and the resulting stock solutions were further diluted in DMSO (100%). 5 μL of each antibiotic dilution were applied to the microdilution tray to reach final concentrations of 64 μg/mL to 0.008 μg/mL. One row of each well plate was left as a growth control without antibiotic substances and another row of the microdilution tray was used as sterility control (only MHB II-media). The antimicrobial effect of the solvent (DMSO) was tested by adding 5 μL DMSO to several wells without antibiotics.
(§5) Purity check and cell titer control were performed according to International Standard M07-A9 on Mueller-Hinton II Agar (Mueller Hinton II Broth, 15 g/L agar-agar).
(§6) Both microdilution trays and agar plates were incubated at 37° C. for 20 h and subsequently analyzed visually.

[2] = test system: E. coli DSM 1116; settings: Escherichia coli, read-out: MIC E. coli DSM1116
Experimental: as §1, §2, §3, §4, §5, §6

[3] = test system: Bacillus subtilis DSM10; settings: read-out: MIC B. subtilis DSM10
Experimental: as §1, §2, §3, §4, §5, §6

[4] = test system: S. typhimurium TA100; settings: Salmonella enterica, 20 h, read-out: MIC S. typhimurium TA100
Experimental: as §1, §2, §3, §4, §5, §6

| Compound | MIC ([1]; DSM1790, 20 h) | MIC ([2]; DSM1116, 20 h) | MIC ([3]; DSM10, 20 h) | MIC [4] | MIC ([4]; gram negative, MHBII media, 37° C.) | MIC ([1]; DSM1790, gram positive, MHBII media, 37° C., 20 h) | MIC ([2]; DSM1116, gram negative, MHBII media, 37° C., 20 h) | MIC ([3]; DSM10, gram positive, MHBII media, 37° C., 20 h) |
| --- | --- | --- | --- | --- | --- | --- | --- | --- |
| COc1c(NC(=O)c2ccc(NC(=O)c3ccc(NC(=O)[C@H](Cc4cccnc4)NC(=O)c4ccc(NC(=O)/C(C)=C/c5ccc(O)cc5)cc4)cc3)c(OC)c2O)ccc(C(=O)O)c1O [Compound 8] | 1000 µg/mL (≈ 1120 µM) | 250 µg/mL (≈ 279 µM) | 500 µg/mL (≈ 559 µM) | – | – | – | – | – |
| COc1c(NC(=O)c2ccc(NC(=O)c3ccc(NC(=O)[C@H](CC#N)NC(=O)c4ccc(NC(=O)/C(C)=C/c5ccc(O)cc5)cc4)cc3O)c(OC)c2O)ccc(C(=O)O)c1O [Compound 14] | – | 31 µg/mL (≈ 36.1 µM) | 250 µg/mL (≈ 291 µM) | 16 µg/mL (≈ 18.6 µM) | – | – | – | – |
| COc1c(NC(=O)c2ccc(NC(=O)c3ccc(NC(=O)[C@H](Cc4c[nH]nn4)NC(=O)c4ccc(NC(=O)/C(C)=C/c5ccc(O)cc5)cc4)c(OC)c3O)c(OC)c2O)ccc(C(=O)O)c1O [Compound 23] | ≥ 8000 µg/mL | ≥ 8000 µg/mL | ≥ 8000 µg/mL | 2000 µg/mL (≈ 2150 µM) | – | – | – | – |
| COc1c(NC(=O)c2ccc(NC(=O)c3ccc(NC(=O)C(CN4CCOCC4)NC(=O)c4ccc(NC(=O)/C(C)=C/c5ccc(O)cc5)cc4)cc3)c(OC)c2O)ccc(C(=O)O)c1O [Compound 4, L-Morpholino-Albicidin] | 8000 µg/mL (≈ 8860 µM) | 500 µg/mL (≈ 554 µM) | 250 µg/mL (≈ 277 µM) | 63 µg/mL (≈ 69.8 µM) | – | – | – | – |
| COc1ccc(C#Cc2ccc(C(=O)N[C@@H](Cc3c[nH]nn3)C(=O)Nc3ccc(C(=O)Nc4ccc(C(=O)Nc5ccc(C(=O)O)c(O)c5OC)c(O)c4OC)cc3)cc2)cc1 [Compound 26] | – | – | – | – | ≤ 16 µg/mL | 500 µg/mL (≈ 595 µM) | 63 µg/mL (≈ 75 µM) | 250 µg/mL (≈ 298 µM) |
| COc1c(NC(=O)c2ccc(NC(=O)c3ccc(N(C)C(=O)[C@H](Cc4c[nH]nn4)NC(=O)c4ccc(NC(=O)/C(C)=C/c5ccc(O)cc5)cc4)cc3)c(OC)c2O)ccc(C(=O)O)c1O [Compound 22] | ≥ 8000 µg/mL | ≥ 8000 µg/mL | ≥ 8000 µg/mL | 2000 µg/mL (≈ 2220 µM) | – | – | – | – |
| COc1c(NC(=O)c2ccc(NC(=O)c3ccc(NC(=O)[C@@H](Cc4c[nH]cn4)NC(=O)c4ccc(NC(=O)/C(C)=C/c5ccc(O)cc5)cc4)cc3)c(OC)c2O)ccc(C(=O)O)c1O [Compound 15, D-His-albicidin] | 8000 µg/mL (≈ 9050 µM) | 125 µg/mL (≈ 141 µM) | 1000 µg/mL (≈ 1130 µM) | 125 µg/mL (≈ 141 µM) | – | – | – | – |
| COc1c(NC(=O)c2ccc(NC(=O)c3ccc(NC(=O)[C@H](Cc4cnn[nH]4)NC(=O)c4ccc(NC(=O)/C(C)=C/c5ccc(O)cc5)cc4)cc3O)c(OC)c2O)ccc(C(=O)O)c1O [Compound 25] | 4000 µg/mL (≈ 4440 µM) | 31 µg/mL (≈ 34.4 µM) | 250 µg/mL (≈ 278 µM) | 16 µg/mL (≈ 17.8 µM) | – | – | – | – |
| COc1c(NC(=O)c2ccc(NC(=O)c3ccc(NC(=O)C(Cc4cn(C)cn4)NC(=O)c4ccc(NC(=O)/C(C)=C/c5ccc(O)cc5)cc4)cc3)c(OC)c2O)ccc(C(=O)O)c1O [Compound 5, L-Methyl-His-Albicidin] | 4000 µg/mL (≈ 4450 µM) | 125 µg/mL (≈ 139 µM) | 500 µg/mL (≈ 557 µM) | 63 µg/mL (≈ 70.2 µM) | – | – | – | – |
| COc1c(NC(=O)c2ccc(NC(=O)c3ccc(NC(=O)[C@H](Cc4ccccn4)NC(=O)c4ccc(NC(=O)/C(C)=C/c5ccc(O)cc5)cc4)cc3)c(OC)c2O)ccc(C(=O)O)c1O [Compound 7, L-2-Py-Albicidin] | 2000 µg/mL (≈ 2230 µM) | 250 µg/mL (≈ 279 µM) | 250 µg/mL (≈ 279 µM) | 125 µg/mL (≈ 140 µM) | – | – | – | – |
| C/C(=C\c1ccc(O)cc1)C(=O)Nc1ccc(C(=O)N[C@@H](CC#N)C(=O)Nc2ccc(C(=O)Nc3ccc(C(=O)Nc4ccc(C(=O)O)c(O)c4)c(O)c3)cc2)cc1 [Compound 12, HMZS-pABA-L-Cya-pABA-HpABA-HpABA-OH] | 32000 µg/mL (≈ 40900 µM) | 16000 µg/mL (≈ 20400 µM) | – | 4000 µg/mL (≈ 5110 µM) | – | – | – | – |
| CCOc1c(NC(=O)c2ccc(NC(=O)c3ccc(NC(=O)[C@H](Cc4c[nH]nn4)NC(=O)c4ccc(NC(=O)/C(C)=C/c5ccc(O)cc5)cc4)cc3)c(OCC)c2O)ccc(C(=O)O)c1O [Compound 20] | 500 µg/mL (≈ 548 µM) | 16 µg/mL (≈ 17.5 µM) | 31 µg/mL (≈ 34 µM) | 16 µg/mL (≈ 17.5 µM) | – | – | – | – |
| COc1c(NC(=O)c2ccc(NC(=O)c3ccc(NC(=O)[C@H](CN(C)C)NC(=O)c4ccc(NC(=O)c5ccc(O)cc5)cc4)cc3)c(OC)c2O)ccc(C(=O)O)c1O [Compound 19] | ≥ 8000 µg/mL | 2000 µg/mL (≈ 2440 µM) | 4000 µg/mL (≈ 4870 µM) | 500 µg/mL (≈ 609 µM) | – | – | – | – |
| C#CCOc1ccc(C(=O)Nc2ccc(C(=O)NC(CC3(C)N=N3)C(=O)Nc3ccc(C(=O)Nc4ccc(C(=O)Nc5ccc(C(=O)O)c(O)c5OC)c(O)c4OC)cc3)cc2)cc1 (centres unmarked) [Compound 11] | 125 µg/mL (≈ 144 µM) | 63 µg/mL (≈ 72.4 µM) | 125 µg/mL (≈ 144 µM) | 16 µg/mL (≈ 18.4 µM) | – | – | – | – |
| COc1c(NC(=O)c2ccc(NC(=O)c3ccc(NC(=O)[C@H](CC#N)NC(=O)c4ccc(NC(=O)/C(C)=C/c5ccc(O)cc5)cc4)c(O)c3)c(OC)c2O)ccc(C(=O)O)c1O [Compound 13] | – | 2000 µg/mL (≈ 2330 µM) | 2000 µg/mL (≈ 2330 µM) | 500 µg/mL (≈ 582 µM) | – | – | – | – |
| COc1c(NC(=O)c2ccc(NC(=O)c3ccc(NC(=O)[C@H](Cc4cnn[nH]4)NC(=O)c4ccc(NC(=O)/C(C)=C/c5ccc(O)cc5)cc4)c(O)c3)c(OC)c2O)ccc(C(=O)O)c1O [Compound 24] | 8000 µg/mL (≈ 8880 µM) | 125 µg/mL (≈ 139 µM) | 1000 µg/mL (≈ 1110 µM) | 63 µg/mL (≈ 69.9 µM) | – | – | – | – |
| C#CCOc1ccc(/C=C(\C)C(=O)Nc2ccc(C(=O)NC(CC3(C)N=N3)C(=O)Nc3ccc(C(=O)Nc4ccc(C(=O)Nc5ccc(C(=O)O)c(O)c5OC)c(O)c4OC)cc3)cc2)cc1 (centres unmarked) [Compound 10] | 250 µg/mL (≈ 275 µM) | 63 µg/mL (≈ 69.2 µM) | 125 µg/mL (≈ 137 µM) | ≤ 16 µg/mL | – | – | – | – |
| COc1c(NC(=O)c2ccc(NC(=O)c3ccc(NC(=O)[C@H](Cc4ccncc4)NC(=O)c4ccc(NC(=O)/C(C)=C/c5ccc(O)cc5)cc4)cc3)c(OC)c2O)ccc(C(=O)O)c1O [Compound 9] | 8000 µg/mL (≈ 8940 µM) | 500 µg/mL (≈ 559 µM) | 2000 µg/mL (≈ 2230 µM) | 125 µg/mL (≈ 140 µM) | – | – | – | – |
| COc1c(NC(=O)c2ccc(NC(=O)c3ccc(NC(=O)[C@H](CC#N)NC(=O)c4ccc(NC(=O)/C(C)=C/c5ccc(O)cc5)cc4)cc3)c(OC)c2O)ccc(C(=O)O)c1O [Albicidin] | 1000 µg/mL (≈ 1190 µM) | 63 µg/mL (≈ 74.7 µM) | 250 µg/mL (≈ 297 µM) | 63 µg/mL (≈ 74.7 µM) | – | – | – | – |
| COc1c(NC(=O)c2ccc(NC(=O)c3ccc(NC(=O)C4(NC(=O)c5ccc(NC(=O)/C(C)=C/c6ccc(O)cc6)cc5)CCN(C)CC4)cc3)c(OC)c2O)ccc(C(=O)O)c1O [Compound 6, N-Methylpiperidino-Albicidin] | ≥ 8000 µg/mL | 2000 µg/mL (≈ 2260 µM) | ≥ 8000 µg/mL | 2000 µg/mL (≈ 2260 µM) | – | – | – | – |
| COc1c(NC(=O)c2ccc(NC(=O)c3ccc(NC(=O)[C@H](Cc4c[nH]nn4)NC(=O)c4ccc(NC(=O)/C(C)=C/c5ccc(F)cc5)cc4)cc3)c(OC)c2O)ccc(C(=O)O)c1O [Compound 18] | 250 µg/mL (≈ 282 µM) | 31 µg/mL (≈ 35 µM) | 125 µg/mL (≈ 141 µM) | ≤ 16 µg/mL | – | – | – | – |
